This is an account of results in patent US11780826B2 (Amgen Inc., priority 2017, dated 2023).

The assay deals with Bovine cardiac myofibrils. Briefly: In vitro model of dose-dependent myofibril ATPase modulation (AC1.4, pyruvate kinase/lactate dehydrogenase-coupled ATPase assay at pCa25). The format is biochemical. As to conditions: concentration at which ATPase activity was 1.4-fold higher than the bottom of the dose curve, mean of a minimum of two independent tests. On the procedure: In vitro Model of Dose-Dependent Myofibril ATPase Modulation: Dose responses were measured using a calcium-buffered, pyruvate kinase and lactate dehydrogenase-coupled ATPase assay containing the following reagents (concentrations expressed are final assay concentrations): Potassium PIPES (12 mM), MgCl2 (2 mM), ATP (1 mM), DTT (1 mM), BSA (0.1 mg/mi), NADH (0.5 mM), PEP (1.5 mM), pyruvate kinase (4 U/ml), lactate dehydrogenase (8 U/ml), and antifoam (90 ppm). The pH was adjusted to 6.80 at 22° C. by addition of potassium hydroxide.
Bovine cardiac myofibrils were obtained by homogenizing the appropriate tissue in the presence of detergent. Such treatment removes membranes and majority of soluble cytoplasmic proteins but leaves intact cardiac sarcomeric acto-myosin apparatus. Concentrations of myofibrils were adjusted to achieve the necessary rate of ATP hydrolysis (typically 0.25-1.0 mg/ml).
Assays were performed by first preparing a dilution series of test chemical entity, each with an assay mixture containing potassium Pipes, MgCl2, BSA, DTT, pyruvate kinase, lactate dehydrogenase, myofibrils, antifoam, EGTA, CaCl2, and water. The assay was started by adding an equal volume of solution containing potassium Pipes, MgCl2, BSA, DTT, ATP, NADH, PEP, antifoam, and water. ATP hydrolysis was monitored by absorbance at 340 nm. The resulting dose response curve was fit by the 4 parameter equation y=Bottom+((Top−Bottom)/(1+((EC50/X)^Hill))). […] AC1.4 values reported in the table below are mean values based on a minimum of two independent tests.
The compound `CS(=O)(=O)c1cccc(C(=O)N2CCC[C@@H]2C(=O)N[C@@H](c2ccc(Cl)c(F)c2)C2COC2)c1` [Example 255, N-((R)-(4-chloro-3-fluorophenyl)(3-oxetanyl)methyl)-1-(3-(methylsulfonyl)benzoyl)-D-prolinamide] returned an AC1.4 of 0.6167 µM.

With “1-(((3S)-1-(((6R)-6-hydroxy-2-azaspiro[3.4]oct-2-yl)sulfonyl)-3-piperidinyl)carbonyl)-N-(4-(trifluoromethyl)benzyl)-D-prolinamide,1-(((3S)-1-(((6S)-6-hydroxy-2-azaspiro[3.4]oct-2-yl)sulfonyl)-3-piperidinyl)carbonyl)-N-(4-(trifluoromethyl)benzyl)-D-prolinamide [Example 750]”, the AC1.4 was 7.331 µM.

For `CC(C)(C)[C@@H](NC(=O)[C@H]1CCCN1C(=O)c1cccc(S(=O)(=O)N2CC(C#N)C2)c1)c1ccc(C(F)(F)F)cc1` [Example 627, 1-(3-((3-cyano-1-azetidinyl)sulfonyl)benzoyl)-N-((1R)-2,2-dimethyl-1-(4-(trifluoromethyl)phenyl)propyl)-D-prolinamide], the AC1.4 was found to be 4.037 µM.

Consider `CS(=O)(=O)c1cc(C(=O)N2CCC[C@@H]2C(=O)N[C@@H](c2ccc(C(F)(F)F)cc2F)C2CC2)ccc1F` [Example 690, N-((R)-cyclopropyl(2-fluoro-4-(trifluoromethyl)phenyl)methyl)-1-(4-fluoro-3-(methylsulfonyl)benzoyl)-D-prolinamide], for which the AC1.4 worked out at 5.354 µM.

As to `Cc1ccc([C@H](NC(=O)[C@H]2C[C@H](F)CN2C(=O)c2cccc(S(C)(=O)=O)c2)C2CC2)cc1F` [Example 792, (4S)-N-((R)-cyclopropyl(3-fluoro-4-methyIphenyl)methyl)-4-fluoro-1-(3-(methylsulfonyl)benzoyl)-D-prolinamide], the AC1.4 was found to be 9.071 µM.

For the compound `CC(C)[C@@H](NC(=O)[C@H]1CCCN1C(=O)c1cccc(S(=O)(=O)N(C)C)c1)c1ccc(C(F)(F)F)cc1F` [Example 185, 1-(3-(dimethylsulfamoyl)benzoyl)-N-((1R)-1-(2-fluoro-4-(trifluoromethyl)phenyl)-2-methylpropyl)-D-prolinamide], the AC1.4 was found to be 0.3371 µM.

In turn, `CN(C)S(=O)(=O)c1cccc(C(=O)N2CCC[C@@H]2C(=O)N[C@H](CO)c2ccc(Cl)c(F)c2)c1` [Example 634, N-((1S)-1-(4-chloro-3-fluorophenyl)-2-hydroxyethyl)-1-(3-(dimethylsulfamoyl)benzoyl)-D-prolinamide] came in with an AC1.4 of 4.1045 µM.

Compound `C[C@@H](NC(=O)[C@H]1CCCN1C(=O)c1cccc(S(=O)(=O)N2CC(C#N)C2)c1)c1cc(F)cc(F)c1` [Example 205, 1-(3-((3-cyano-1-azetidinyl)sulfonyl)benzoyl)-N-((1R)-1-(3,5-difluorophenyl)ethyl)-D-prolinamide] displayed an AC1.4 of 0.4322 µM.

`Cc1ccc([C@H](NC(=O)[C@H]2C[C@H]3C[C@H]3N2C(=O)c2cccc(S(C)(=O)=O)c2)C2CC2)cc1F` [Example 810, (1R,3R,5R)-N-((R)-cyclopropyl(3-fluoro-4-methylphenyl)methyl)-2-(3-(methylsulfonyl)benzoyl)-2-azabicyclo[3.1.0]hexane-3-carboxamide] registered an AC1.4 of 5.084 µM.

For the compound `CC(C)(O)c1cccc(C(=O)N2CCC[C@@H]2C(=O)N[C@@H](c2ccc(C(F)(F)F)cc2F)C2CC2)c1` [Example 794, N-((R)-cyclopropyl(2-fluoro-4-(trifluoromethyl)phenyl)methyl)-1-(3-(2-hydroxy-2-propanyl)benzoyl)-D-prolinamide], the AC1.4 was found to be 9.2425 µM.

With `N#CC1CN(S(=O)(=O)N2CCC[C@H](C(=O)N3CCC[C@@H]3C(=O)NCc3ccc(F)c(C(F)(F)F)c3)C2)C1` [Example 297, 1-(((3S)-1-((3-cyano-1-azetidinyl)sulfonyl)-3-piperidinyl)carbonyl)-N-(4-fluoro-3-(trifluoromethyl)benzyl)-D-prolinamide], the AC1.4 worked out at 0.7685 µM.

Take `Cc1ccc([C@@H](C)NC(=O)[C@H]2CCCN2C(=O)[C@H]2CCCN(S(=O)(=O)N3CC(C#N)C3)C2)cc1` [Example 285, 1-(((3S)-1-((3-cyano-1-azetidinyl)sulfonyl)-3-piperidinyl)carbonyl)-N-((1R)-1-(4-methylphenyl)ethyl)-D-prolinamide]: the AC1.4 was determined as 0.7351 µM.

Regarding `CS(=O)(=O)c1ccc(N)c(C(=O)N2[C@@H](C(=O)N[C@@H](c3ccc(C(F)(F)F)cc3F)C3CC3)C[C@H]3C[C@H]32)c1` [Example 813, (1R,3R,5R)-2-(2-amino-5-(methylsulfonyl)benzoyl)-N-((R)-cyclopropyl(2-fluoro-4-(trifluoromethyl)phenyl)methyl)-2-azabicyclo[3.1.0]hexane-3-carboxamide], the AC1.4 is 0.7101 µM.

`CS(=O)(=O)c1cncc(C(=O)N2[C@@H](C(=O)N[C@@H](c3cc(F)c(C(F)(F)F)cc3F)C3CC3)C[C@@H]3C[C@@H]32)c1` [Example 598, (1S,3R,5S)-N-((R)-cyclopropyl(2,5-difluoro-4-(trifluoromethyl)phenyl)methyl)-2-((5-(methylsulfonyl)-3-pyridinyl)carbonyl)-2-azabicyclo[3.1.0]hexane-3-carboxamide] gave an AC1.4 of 3.0525 µM.

`N#CC1CN(S(=O)(=O)c2cccc(C(=O)N3CCC[C@@H]3C(=O)NCc3cnc(C(F)(F)F)nc3)c2)C1` [Example 136, 1-((3-((3-cyano-1-azetidinyl)sulfonyl)phenyl)carbonyl)-N-((2-(trifluoromethyl)-5-pyrimidinyl)methyl)-D-prolinamide] gave an AC1.4 of 0.2235 µM.

As for `Cc1cc(C(=O)N2[C@@H](C(=O)N[C@@H](c3cc(F)c(C(F)(F)F)cc3F)C3CC3)C[C@H]3C[C@H]32)c(C(C)O)cn1` (stereo partly drawn) [Example 822, (1R,3R,5R)-N-((R)-cyclopropyl(2,5-difluoro-4-(trifluoromethyl)phenyl)methyl)-2-(5-(l-hydroxyethyl)-2-methylisonicotinoyl)-2-azabicyclo[3.1.0]hexane-3-carboxamide], the AC1.4 was 5.894 µM.

`N#CC1CN(S(=O)(=O)N2CCC[C@H](C(=O)N3CCC[C@@H]3C(=O)NCc3cc(F)cc(C(F)(F)F)c3)C2)C1` [Example 379, 1-(((3S)-1-((3-cyano-1-azetidinyl)sulfonyl)-3-piperidinyl)carbonyl)-N-(3-fluoro-5-(trifluoromethyl)benzyl)-D-prolinamide] had an AC1.4 of 1.237 µM.

Take `C[C@@H](NC(=O)[C@H]1CCCN1C(=O)[C@H]1CCCN(S(=O)(=O)N2CC(C#N)C2)C1)c1ccc(C#N)cc1` [Example 540, 1-(((3S)-1-((3-cyano-1-azetidinyl)sulfonyl)-3-piperidinyl)carbonyl)-N-((1R)-1-(4-cyanophenyl)ethyl)-D-prolinamide]: the AC1.4 turned out to be 2.7885 µM.

`Cc1ccc(C(C)NC(=O)[C@H]2CCCN2C(=O)[C@H]2CCCN(S(=O)(=O)N3CC(C#N)C3)C2)cc1F` (stereo partly drawn) [Example 155, 1-(((3S)-1-((3-cyano-1-azetidinyl)sulfonyl)-3-piperidinyl)carbonyl)-N-(-1-(3-fluoro-4-methylphenyl)ethyl)-D-prolinamide] came in with an AC1.4 of 0.272 µM.

The compound `N#CC1CN(S(=O)(=O)c2cccc(C(=O)N3CC(F)(F)C[C@@H]3C(=O)NCc3ccc(C(F)(F)F)nc3)c2)C1` [Example 95, 1-((3-((3-cyano-1-azetidinyl)sulfonyl)phenyl)carbonyl)-4,4-difluoro-N-((6-(trifluoromethyl)-3-pyridinyl)methyl)-D-prolinamide] came in with an AC1.4 of 0.1446 µM.

Compound `N#CC1CN(S(=O)(=O)c2cccc(C(=O)N3CCC[C@@H]3C(=O)NCc3ccc(C(F)(F)F)cn3)c2)C1` [Example 644, 1-((3-((3-cyano-1-azetidinyl)sulfonyl)phenyl)carbonyl)-N-((5-(trifluoromethyl)-2-pyridinyl)methyl)-D-prolinamide] yielded an AC1.4 of 4.3367 µM.

Take `N#CC1CN(S(=O)(=O)N2CCC[C@H](C(=O)N3[C@@H](C(=O)NCc4ccc(C(F)(F)F)cc4F)C[C@H]4C[C@H]43)C2)C1` [Example 33, (1R,3R,5R)-2-(((3S)-1-((3-cyano-1-azetidinyl)sulfonyl)-3-piperidinyl)carbonyl)-N-(2-fluoro-4-(trifluoromethyl)benzyl)-2-azabicyclo[3.1.0]hexane-3-carboxamide]: the AC1.4 turned out to be 0.03455 µM.

`CS(=O)(=O)c1cccc(C(=O)N2[C@@H](C(=O)N[C@@H](c3ccc(Cl)c(F)c3)C3CC3)C[C@H]3C[C@H]32)c1` [Example 485, (1R,3R,5R)-N-((R)-(4-chloro-3-fluorophenyl)(cyclopropyl)methyl)-2-(3-(methylsulfonyl)benzoyl)-2-azabicyclo[3.1.0]hexane-3-carboxamide] gave an AC1.4 of 2.0445 µM.

Turning to `CC(C)C1(O)CN(S(=O)(=O)N2CCC[C@H](C(=O)N3CCC[C@@H]3C(=O)NCc3ccc(C(F)(F)F)cc3F)C2)C1` [Example 332, N-(2-fluoro-4-(trifluoromethyl)benzyl)-1-(((3S)-1-((3-hydroxy-3-(2-propanyl)-1-azetidinyl)sulfonyl)-3-piperidinyl)carbonyl)-D-prolinamide], the AC1.4 amounted to 0.9097 µM.
